Experimental data taken from ChEMBL document CHEMBL3885881, “DrugMatrix”.

Organism: Rattus norvegicus
Experiment: DrugMatrix - Regimen: Daily Repeat
Format: toxicity, organism-based, Sprague-Dawley
Set-up: regimen Daily Repeat, gender Male, age 6-8 weeks
Conditions: in vivo, po, route oral GAVAGE, vehicle 100 % WATER; for ABSOLUTE BASOPHIL / ABSOLUTE EOSINOPHIL / ABSOLUTE LYMPHOCYTE / ABSOLUTE MONOCYTE / ABSOLUTE SEGMENTED NEUTROPHIL / BASOPHIL / EOSINOPHIL / ERYTHROCYTE COUNT / HEMATOCRIT / HEMOGLOBIN / LEUKOCYTE COUNT / LYMPHOCYTE / MEAN CORPUSCULAR HEMOGLOBIN / MEAN CORPUSCULAR HEMOGLOBIN CONCENTRATION / MEAN CORPUSCULAR VOLUME / MONOCYTE / NEUTROPHIL / NUCLEATED RED BLOOD CELLS / PLATELET COUNT: tissue Blood; for ALANINE AMINOTRANSFERASE / ALBUMIN / ALKALINE PHOSPHATASE / ASPARTATE AMINOTRANSFERASE / BLOOD UREA NITROGEN / CARBON DIOXIDE / CHLORIDE / CHOLESTEROL / CREATINE PHOSPHOKINASE / CREATININE / GLUCOSE / LACTATE DEHYDROGENASE / LIPASE / PHOSPHORUS / POTASSIUM / SODIUM / TOTAL BILIRUBIN / TOTAL PROTEIN / URIC ACID: tissue Plasma
[1] = 120 mg/kg, 120 h, dose level Low, time 5 day
[2] = 1200 mg/kg, 72 h, dose level High, time 3 day
[3] = 1200 mg/kg, 120 h, dose level High, time 5 day

## CCN(CC)CCNC(=O)c1cc(S(C)(=O)=O)ccc1OC [TIAPRIDE]
[1]
  ABSOLUTE BASOPHIL: 0 CELLS/uL
  ABSOLUTE EOSINOPHIL: 28 CELLS/uL
  ABSOLUTE LYMPHOCYTE: 7405.67 CELLS/uL
  ABSOLUTE MONOCYTE: 0 CELLS/uL
  ABSOLUTE SEGMENTED NEUTROPHIL: 299.67 CELLS/uL
  BASOPHIL: 0%
  EOSINOPHIL: 0.33%
  ERYTHROCYTE COUNT: 5.54 x10E6/uL
  HEMATOCRIT: 34.8%
  HEMOGLOBIN: 13.1 G/DL
  LEUKOCYTE COUNT: 7.73 x10E3/uL
  LYMPHOCYTE: 95.67%
  MEAN CORPUSCULAR HEMOGLOBIN: 23.67 pg
  MEAN CORPUSCULAR HEMOGLOBIN CONCENTRATION: 37.7 G/DL
  MEAN CORPUSCULAR VOLUME: 62.73 fL
  MONOCYTE: 0%
  NEUTROPHIL: 4%
  NUCLEATED RED BLOOD CELLS: 0 /100WBC
  PLATELET COUNT: 1102.33 x10E3/uL
  ALANINE AMINOTRANSFERASE: 42 u/L
  ALBUMIN: 4.3 G/DL
  ALKALINE PHOSPHATASE: 382 u/L
  ASPARTATE AMINOTRANSFERASE: 80.33 u/L
  BLOOD UREA NITROGEN: 15.33 mg/dL
  CARBON DIOXIDE: 27.67 mmol/L
  CHLORIDE: 103 MEQ/L
  CHOLESTEROL: 70.67 mg/dL
  CREATINE PHOSPHOKINASE: 223.33 u/L
  CREATININE: 0.19 mg/dL
  GLUCOSE: 142.33 mg/dL
  LACTATE DEHYDROGENASE: 132.33 u/L
  LIPASE: 8.33 u/L
  PHOSPHORUS: 11.83 mg/dL
  POTASSIUM: 6.07 MEQ/L
  SODIUM: 149.23 MEQ/L
  TOTAL BILIRUBIN: 0.27 mg/dL
  TOTAL PROTEIN: 6.03 G/DL
  URIC ACID: 0.97 mg/dL
[2]
  ABSOLUTE BASOPHIL: 0 CELLS/uL
  ABSOLUTE EOSINOPHIL: 187.33 CELLS/uL
  ABSOLUTE LYMPHOCYTE: 11272.67 CELLS/uL
  ABSOLUTE MONOCYTE: 0 CELLS/uL
  ABSOLUTE SEGMENTED NEUTROPHIL: 806.67 CELLS/uL
  BASOPHIL: 0%
  EOSINOPHIL: 1.33%
  ERYTHROCYTE COUNT: 6.23 x10E6/uL
  HEMATOCRIT: 38.93%
  HEMOGLOBIN: 14.8 G/DL
  LEUKOCYTE COUNT: 12.27 x10E3/uL
  LYMPHOCYTE: 92.33%
  MEAN CORPUSCULAR HEMOGLOBIN: 23.73 pg
  MEAN CORPUSCULAR HEMOGLOBIN CONCENTRATION: 38.03 G/DL
  MEAN CORPUSCULAR VOLUME: 62.5 fL
  MONOCYTE: 0%
  NEUTROPHIL: 6.33%
  NUCLEATED RED BLOOD CELLS: 0 /100WBC
  PLATELET COUNT: 1394 x10E3/uL
  ALANINE AMINOTRANSFERASE: 38 u/L
  ALBUMIN: 4.53 G/DL
  ALKALINE PHOSPHATASE: 408 u/L
  ASPARTATE AMINOTRANSFERASE: 80 u/L
  BLOOD UREA NITROGEN: 22.33 mg/dL
  CARBON DIOXIDE: 23.33 mmol/L
  CHLORIDE: 107 MEQ/L
  CHOLESTEROL: 76.33 mg/dL
  CREATINE PHOSPHOKINASE: 431 u/L
  CREATININE: 0.22 mg/dL
  GLUCOSE: 189.67 mg/dL
  LACTATE DEHYDROGENASE: 523.33 u/L
  LIPASE: 8.33 u/L
  PHOSPHORUS: 14.8 mg/dL
  POTASSIUM: 6.75 MEQ/L
  SODIUM: 147.23 MEQ/L
  TOTAL BILIRUBIN: 0.27 mg/dL
  TOTAL PROTEIN: 6.37 G/DL
  URIC ACID: 1.9 mg/dL
[3]
  ABSOLUTE BASOPHIL: 0 CELLS/uL
  ABSOLUTE EOSINOPHIL: 212 CELLS/uL
  ABSOLUTE LYMPHOCYTE: 15513 CELLS/uL
  ABSOLUTE MONOCYTE: 0 CELLS/uL
  ABSOLUTE SEGMENTED NEUTROPHIL: 1775 CELLS/uL
  BASOPHIL: 0%
  EOSINOPHIL: 1%
  ERYTHROCYTE COUNT: 5.86 x10E6/uL
  HEMATOCRIT: 36.5%
  HEMOGLOBIN: 13.9 G/DL
  LEUKOCYTE COUNT: 17.5 x10E3/uL
  LYMPHOCYTE: 89.33%
  MEAN CORPUSCULAR HEMOGLOBIN: 23.73 pg
  MEAN CORPUSCULAR HEMOGLOBIN CONCENTRATION: 38.1 G/DL
  MEAN CORPUSCULAR VOLUME: 62.33 fL
  MONOCYTE: 0%
  NEUTROPHIL: 9.67%
  NUCLEATED RED BLOOD CELLS: 0 /100WBC
  PLATELET COUNT: 1226 x10E3/uL
  ALANINE AMINOTRANSFERASE: 48.67 u/L
  ALBUMIN: 4.17 G/DL
  ALKALINE PHOSPHATASE: 452.67 u/L
  ASPARTATE AMINOTRANSFERASE: 83.67 u/L
  BLOOD UREA NITROGEN: 17.33 mg/dL
  CARBON DIOXIDE: 26.33 mmol/L
  CHLORIDE: 102.67 MEQ/L
  CHOLESTEROL: 66 mg/dL
  CREATINE PHOSPHOKINASE: 508.33 u/L
  CREATININE: 0.27 mg/dL
  GLUCOSE: 161.67 mg/dL
  LACTATE DEHYDROGENASE: 191.33 u/L
  LIPASE: 8 u/L
  PHOSPHORUS: 14.53 mg/dL
  POTASSIUM: 6.21 MEQ/L
  SODIUM: 146.03 MEQ/L
  TOTAL BILIRUBIN: 0.27 mg/dL
  TOTAL PROTEIN: 6.03 G/DL
  URIC ACID: 1.73 mg/dL
